In assay [1] the target is DapE (Mycobacterium tuberculosis, UniProt P9WHS9).
In assay [2] the target is Rv1723 (Mycobacterium tuberculosis, UniProt P71981).
For assay [3], the target named is Rv0309 (Mycobacterium tuberculosis, UniProt O07236).

The structures appear in SMILES notation.

Chain of Rv0309 (O07236 19-218 limits assumed): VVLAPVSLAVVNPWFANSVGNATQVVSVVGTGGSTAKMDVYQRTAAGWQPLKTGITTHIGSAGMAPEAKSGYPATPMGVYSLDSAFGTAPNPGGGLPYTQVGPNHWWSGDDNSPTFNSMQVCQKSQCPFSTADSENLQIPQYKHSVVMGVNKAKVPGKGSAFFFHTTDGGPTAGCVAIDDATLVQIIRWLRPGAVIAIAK
Chain of DapE (P9WHS9 whole entry, looked up): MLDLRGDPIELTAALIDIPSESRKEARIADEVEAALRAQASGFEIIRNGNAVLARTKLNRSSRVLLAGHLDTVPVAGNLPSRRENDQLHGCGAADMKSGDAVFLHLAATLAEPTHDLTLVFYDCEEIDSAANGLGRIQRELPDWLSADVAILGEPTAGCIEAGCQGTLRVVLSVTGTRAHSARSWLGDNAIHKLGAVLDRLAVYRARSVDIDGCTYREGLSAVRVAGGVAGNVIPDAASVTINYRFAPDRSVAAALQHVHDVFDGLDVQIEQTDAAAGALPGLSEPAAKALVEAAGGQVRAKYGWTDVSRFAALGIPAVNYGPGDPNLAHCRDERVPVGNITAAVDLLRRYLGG
Chain of Rv1723 (P71981 1-415): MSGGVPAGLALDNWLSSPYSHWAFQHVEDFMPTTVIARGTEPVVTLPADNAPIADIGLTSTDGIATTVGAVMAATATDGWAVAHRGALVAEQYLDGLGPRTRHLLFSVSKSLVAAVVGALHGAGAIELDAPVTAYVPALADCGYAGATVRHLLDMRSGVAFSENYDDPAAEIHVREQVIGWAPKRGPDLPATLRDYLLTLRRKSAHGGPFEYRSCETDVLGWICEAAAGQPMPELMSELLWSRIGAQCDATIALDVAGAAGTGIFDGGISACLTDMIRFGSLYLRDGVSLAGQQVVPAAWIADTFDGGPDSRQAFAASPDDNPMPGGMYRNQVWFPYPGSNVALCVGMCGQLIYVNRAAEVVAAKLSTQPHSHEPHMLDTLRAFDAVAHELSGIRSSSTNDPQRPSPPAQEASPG

As to `C[C@@H](O)[C@H]1C(=O)N2C(C(=O)O)=C(S[C@H]3C[C@@H](C(=O)N(C)C)N(C(=O)CCCCC[N+]4=C(/C=C/C=C/C=C5/N(C)c6ccc(S(=O)(=O)O)cc6C5(C)C)C(C)(C)c5cc(S(=O)(=O)[O-])ccc54)C3)[C@H](C)[C@H]12` [Mero-sCy5], the “fluorescent gel labelling (SDS-PAGE)” value in assay [1] is recorded as “Mero-sCy5 labeled all enzymes”. Turning to `CO[C@@]1(NC(=O)Cc2cccs2)C(=O)N2C(C(=O)O)=C(COC(N)=O)CS[C@@H]21` [cefoxitin], in assay [2], the “native MS (acyl-enzyme)” value was “binding to cefoxitin was only partial”.

Turning to `C[C@@H](O)[C@H]1C(=O)N2C(C(=O)O)=C(S[C@@H]3CN[C@H](C(=O)N(C)C)C3)[C@H](C)[C@H]12` [meropenem], in assay [3], the “native MS (acyl-enzyme); competition of Mero-sCy5 labelling; inhibition of nitro” value is recorded as “Rv0309 partially bound meropenem”.

The record behind these values is publication doi:10.1101/2025.02.25.640225v1 (biorxiv, 2025).
